Results taken from PubChem BioAssay (NCI).
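Cells were grown in 96-well plates and exposed to each compound for 48 hours at five concentrations; endpoints were interpolated linearly between bracketing concentrations, or set to the highest concentration if not reached. TGI marks complete inhibition of growth.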

Columns and labels:
Assay in all cases: growth of human tumour cells (NCI), 48 h
786-0 renal = tested on: 786-0 renal
A498 renal = tested on: A498 renal
A549 NSCLC = tested on: A549 NSCLC
ACHN renal = tested on: ACHN renal
BT-549 breast = tested on: BT-549 breast
CAKI-1 renal = tested on: CAKI-1 renal
CCRF-CEM leukemia = tested on: CCRF-CEM leukemia
COLO 205 colon = tested on: COLO 205 colon
DU-145 prostate = tested on: DU-145 prostate
EKVX NSCLC = tested on: EKVX NSCLC
HCC-2998 colon = tested on: HCC-2998 colon
HCT-116 colon = tested on: HCT-116 colon
HCT-15 colon = tested on: HCT-15 colon
HL-60(TB) leukemia = tested on: HL-60(TB) leukemia
HOP-62 NSCLC = tested on: HOP-62 NSCLC
HOP-92 NSCLC = tested on: HOP-92 NSCLC
HS 578T breast = tested on: HS 578T breast
HT29 colon = tested on: HT29 colon
IGROV1 ovarian = tested on: IGROV1 ovarian
KM12 colon = tested on: KM12 colon
LOX IMVI melanoma = tested on: LOX IMVI melanoma
M14 melanoma = tested on: M14 melanoma
MALME-3M melanoma = tested on: MALME-3M melanoma
MCF7 breast = tested on: MCF7 breast
MDA-MB-231 breast = tested on: MDA-MB-231 breast
MDA-MB-435 = tested on: MDA-MB-435
MDA-N = tested on: MDA-N
MOLT-4 leukemia = tested on: MOLT-4 leukemia
NCI-H226 lung = tested on: NCI-H226 lung
NCI-H23 lung = tested on: NCI-H23 lung
NCI-H460 lung = tested on: NCI-H460 lung
NCI-H522 lung = tested on: NCI-H522 lung
NCI/ADR-RES ovarian = tested on: NCI/ADR-RES ovarian
OVCAR-3 ovarian = tested on: OVCAR-3 ovarian
OVCAR-4 ovarian = tested on: OVCAR-4 ovarian
OVCAR-5 ovarian = tested on: OVCAR-5 ovarian
OVCAR-8 ovarian = tested on: OVCAR-8 ovarian
PC-3 prostate = tested on: PC-3 prostate
RPMI-8226 leukemia = tested on: RPMI-8226 leukemia
SF-268 CNS = tested on: SF-268 CNS
SF-295 CNS = tested on: SF-295 CNS
SF-539 CNS = tested on: SF-539 CNS
SK-MEL-2 melanoma = tested on: SK-MEL-2 melanoma
SK-MEL-28 melanoma = tested on: SK-MEL-28 melanoma
SK-MEL-5 melanoma = tested on: SK-MEL-5 melanoma
SK-OV-3 ovarian = tested on: SK-OV-3 ovarian
SN12C renal = tested on: SN12C renal
SNB-19 CNS = tested on: SNB-19 CNS
SR leukemia = tested on: SR leukemia
SW-620 colon = tested on: SW-620 colon
T-47D breast = tested on: T-47D breast
TK-10 renal = tested on: TK-10 renal
U251 CNS = tested on: U251 CNS
UACC-257 melanoma = tested on: UACC-257 melanoma
UACC-62 melanoma = tested on: UACC-62 melanoma
UO-31 renal = tested on: UO-31 renal

## CC(CCOc1ccc2ccc(=O)oc2c1)C1=CC(=O)C(C)(C)O1 (stereo unspecified)
786-0 renal
  TGI: 7.69 µM
A498 renal
  TGI: 5.52 µM
A549 NSCLC
  TGI: 10.6 µM
ACHN renal
  TGI: 12.4 µM
BT-549 breast
  TGI: 11 µM
CAKI-1 renal
  TGI: 8.75 µM
CCRF-CEM leukemia
  TGI: 3.18 µM
COLO 205 colon
  TGI: 5.97 µM
DU-145 prostate
  TGI: 12.5 µM
EKVX NSCLC
  TGI: 15.1 µM
HCC-2998 colon
  TGI: 5.71 µM
HCT-116 colon
  TGI: 10 µM
HCT-15 colon
  TGI: 5.68 µM
HL-60(TB) leukemia
  TGI: 5.31 µM
HOP-62 NSCLC
  TGI: 21.3 µM
HOP-92 NSCLC
  TGI: 13.2 µM
HS 578T breast
  TGI: 6.84 µM
HT29 colon
  TGI: 10.4 µM
IGROV1 ovarian
  TGI: 14.8 µM
KM12 colon
  TGI: 7.41 µM
LOX IMVI melanoma
  TGI: > 100 µM
M14 melanoma
  TGI: 26.5 µM
MALME-3M melanoma
  TGI: 10.8 µM
MCF7 breast
  TGI: 14.7 µM
MDA-MB-231 breast
  TGI: 12.5 µM
MDA-MB-435
  TGI: 11.5 µM
MDA-N
  TGI: 16.4 µM
MOLT-4 leukemia
  TGI: 6.37 µM
NCI-H226 lung
  TGI: 22.5 µM
NCI-H23 lung
  TGI: 11.9 µM
NCI-H460 lung
  TGI: 3.94 µM
NCI-H522 lung
  TGI: 3.11 µM
NCI/ADR-RES ovarian
  TGI: 5.62 µM
OVCAR-3 ovarian
  TGI: 11.6 µM
OVCAR-4 ovarian
  TGI: 22.5 µM
OVCAR-5 ovarian
  TGI: 49.9 µM
OVCAR-8 ovarian
  TGI: 4.45 µM
PC-3 prostate
  TGI: 23.5 µM
RPMI-8226 leukemia
  TGI: 7.31 µM
SF-268 CNS
  TGI: 5.28 µM
SF-295 CNS
  TGI: 14.3 µM
SF-539 CNS
  TGI: 4.37 µM
SK-MEL-2 melanoma
  TGI: 26.3 µM
SK-MEL-28 melanoma
  TGI: 12.2 µM
SK-MEL-5 melanoma
  TGI: 24 µM
SK-OV-3 ovarian
  TGI: 14.2 µM
SN12C renal
  TGI: 4.09 µM
SNB-19 CNS
  TGI: 18.2 µM
SR leukemia
  TGI: 3.42 µM
SW-620 colon
  TGI: 4.93 µM
T-47D breast
  TGI: 6.06 µM
TK-10 renal
  TGI: 13.3 µM
U251 CNS
  TGI: 10.3 µM
UACC-257 melanoma
  TGI: 20.6 µM
UACC-62 melanoma
  TGI: 14.9 µM
UO-31 renal
  TGI: 12.1 µM
